# Test results: patent US20230121313A1 (priority 2019, published 2023)
# Structures can show the parent of a compound that is named as a salt.
# Legend:
# [1] = Solubility of esketamine HCl; conditions: for solubility: pH 4.5, aqueous buffer
# Method: The clinical investigational product is an aqueous solution of the drug substance, esketamine hydrochloride (HCl). This formulation is administered intranasally to patients using a dual nasal spray device, which delivers one spray into each nostril. […] The formulation was stored at 37° C. for stability reasons until dosing.
# glutamate NMDA receptor = conditions: cited from earlier work
# [2] = system: elderly subjects with TRD; experiment: MADRS total score, Study […]3005 (change, response, remission); type: in vivo, human
# Method: The primary objective of this study was to evaluate the efficacy of switching elderly subjects with treatment-resistant depression (TRD) from a prior antidepressant treatment (to which they have not responded) to flexibly dosed intranasal esketamine (28 mg, 56 mg or 84 mg) plus a newly initiated oral antidepressant compared with switching to a newly initiated oral antidepressant plus intranasal placebo, in improving depressive symptoms, as assessed by the change from baseline in the Montgomery-Asberg Depression Rating Scale (MADRS) total score from Day 1 (pre-randomization) to the end of the 4-week double-blind induction phase.
# Primary Efficacy Evaluation: The primary efficacy evaluation is described in Example 1. Key Secondary Efficacy Evaluation (Clinician-completed): The key secondary efficacy evaluation (clinician-completed) is described in Example 1. Key Secondary Efficacy Evaluation (Patient-reported Outcome): The key secondary efficacy evaluation (patient-reported outcome) is described in Example 1. Primary Endpoint: The primary efficacy endpoint is described in Example 1. Primary Endpoint Results: The primary endpoint results are the same as described in Example 1. See, Table 34 and FIG. 19.
# As specified in the SAP, the weighted combination test was the primary analysis for the primary efficacy endpoint since an interim analysis for sample size re-estimation was conducted. A post-hoc analysis using an unweighted MMRM analysis (essentially disregarding the interim analysis) was performed and the one-sided p-value was 0.018 using this approach. The post-hoc one-sided p-value was 0.017 using the unweighted ANCOVA analysis.
# Response (≥50% improvement from baseline in the MADRS total score) and Remission (MADRS total score is ≤12) rates are presented in Table 35.
# For the clinician-rated assessments, MADRS was administered at baseline and days 8, 15, 22 and 28. MADRS scores were obtained remotely by telephone by independent raters blinded to subject's treatment response. Similarly, the Clinical Global Impressions-Severity (CGI-S) scale was administered at baseline; days 4, 8, 11, 15, 18, 22, 25; and at the 4-week double-blind end point.
# For the MADRS, PHQ-9, and SDS total scores, the test for treatment effect was based on mixed model for repeated measures (MMRM) on observed case data with change from baseline as the response variable and the fixed effect model terms for treatment (ESK+AD, AD+PBO), day, class of oral AD (SNRI or SSRI), and treatment-by-day, and baseline value as a covariate. […]
# Efficacy was determined by measuring MADRS total scores, SDS scores, PHQ-9 scores and CGI-S scores. […]
# adult subjects with TRD = conditions: human, in vivo, other: intranasal
# Method: The CADSS is an instrument for the measurement of present-state dissociative symptoms, and was administered to assess treatment-emergent dissociative symptoms. The CADSS consists of 23 subjective items, divided into 3 components: Depersonalization (Items 3 to 7, 20, and 23), derealization (Items 1, 2, 8 to 13, 16 to 19, and 21) and amnesia (Items 14, 15, and 22). Participant's responses were coded on a 5-point scale (0=not at all through to 4=extremely).
# (§1) The Clinician Administered Dissociative States Scale (CADSS) was measured prior to the start of each dose, at 40 minutes, and 1.5 hours postdose.
# patients = experiment: Adverse reactions across clinical studies as described in product labeling; type: in vivo, human
# Description: In the product labeling, patients will be informed that dissociative/perceptual changes (including distortion of time and space and illusions), derealization and depersonalization are common psychological effects of esketamine. Patients will be further advised that • These adverse reactions were reported as transient and self-limited and occurred on the day of dosing. • Dissociation was reported as severe in intensity at the incidence of less than 4% across studies, • Dissociation symptoms typically resolved by 1.5 hours after dosing and the severity tended to reduce over time with repeated treatments. • Dissociative and perception disturbances may decrease after a few treatment sessions.
# The product label will include a brief description of the adverse reactions of sedation and somnolence reported in clinical studies with esketamine: • Events of sedation and somnolence were primarily mild or moderate in severity, occurred on the day of dosing and resolved spontaneously the same day. • The sedative effects typically resolved by 1.5 hours after dosing. • Rates of somnolence were relatively stable over time during long-term treatment. • In the cases of sedation, no symptoms of respiratory distress were observed, and hemodynamic parameters (including vital signs and oxygen saturation) remained within normal ranges.
# subjects with TRD = conditions: human, in vivo, other: intranasal
# Method: as §1
# [3] = system: patients with treatment-resistant depression (TRD); experiment: GAD-7, phase 2 dose-response study in TRD; type: in vivo, human
# Method: Overall illness severity was assessed on the Clinical Global Impression of Severity (CGI-S) scale (Guy, “ECDEU Assessment Manual for Psychopharmacology-Revised (DHEW Publ No ADM 76-338)”, Rockville, Md.: U.S. Department of Health, Education, and Welfare, Public Health Service, Alcohol, Drug Abuse, and Mental Health Administration, NIMH Psychopharmacology Research Branch, Division of Extramural Research Programs; 1976, pp 218-222). Participants assessed their severity of anxiety on the Generalized Anxiety Disorder 7-item (GADS-7) Scale (See, Tables 157 and 158). See, Spitzer, “A brief measure for assessing generalized anxiety disorder—the GAD-7”, Arch. Intern. Med., 2006, 166(10):1092-1097.
# [4] = system: patients with treatment-resistant depression (TRD); experiment: Vital signs (blood pressure, heart rate), phase 2 dose-response study in TRD; type: in vivo, human
smiles,measurement,setting,value
"CN[C@]1(c2ccccc2Cl)CCCCC1=O [esketamine HCl, (S)-2-(2-chlorophenyl)-2-(methylamino)cyclohexanone hydrochloride]",solubility,[1]; aqueous solution,207 mg/mL
same,Maximum solubility expressed as esketamine base,"[1]; room temperature, pH 4.5, factor 1.15",180 mg esketamine base/mL
same,solubility,[1]; water,180 mg/mL
"CN[C@]1(c2ccccc2Cl)CCCCC1=O [esketamine, (S)-2-(2-chlorophenyl)-2-(methylamino)cyclohexanone]",Affinity for the glutamate NMDA receptor in vitro relative to R-ketamine,glutamate NMDA receptor,3 to 4 fold
same,"MADRS total score: difference in LS mean change (SE), MMRM","[2]; Day 28, subjects aged 65-74",−4.9 (2.04)
same,"MADRS total score: difference in LS mean change (SE), MMRM","[2]; Day 28, subjects aged 75 and above",−0.4 (5.02)
same,MADRS total score: LS mean (SE) treatment difference,[2]; Stage 1 (enrolled before interim analysis),−1.6 (2.62)
same,MADRS total score: LS mean (SE) treatment difference,[2]; Stage 2 (enrolled after interim analysis),−5.6 (2.63)
same,CADSS dissociative and perceptual change symptoms resolved by (postdose),adult subjects with TRD,≤ 1.5 h
same,Dissociation symptoms typically resolved by (after dosing),patients; across studies,≤ 1.5 h
same,Incidence of dissociation reported as severe in intensity,patients; across studies,less than 4%
same,Sedative effects typically resolved by (after dosing),patients; clinical studies,≤ 1.5 h
same,CADSS dissociative/perceptual change symptoms resolved by (post dose),subjects with TRD,≤ 1.5 h
same,GAD-7 LS mean difference from placebo (SE),"[3]; Period 1, 28 mg",−0.21 (1.461)
same,"GAD-7 change from baseline to end point, LS mean (SE)","[3]; Period 1, 28 mg",−1.5 (1.34)
same,GAD-7 LS mean difference from placebo (SE),"[3]; Period 1, 56 mg",−1.40 (1.478)
same,"GAD-7 change from baseline to end point, LS mean (SE)","[3]; Period 1, 56 mg",−3.1 (1.34)
same,GAD-7 LS mean difference from placebo (SE),"[3]; Period 1, 84 mg",−3.44 (1.414)
same,"GAD-7 change from baseline to end point, LS mean (SE)","[3]; Period 1, 84 mg",−5.1 (1.30)
same,GAD-7 LS mean difference from placebo (SE),"[3]; Period 2, 28 mg",−2.02 (1.089)
same,"GAD-7 change from baseline to end point, LS mean (SE)","[3]; Period 2, 28 mg",−1.6 (0.87)
same,GAD-7 LS mean difference from placebo (SE),"[3]; Period 2, 56 mg",0.60 (1.033)
same,"GAD-7 change from baseline to end point, LS mean (SE)","[3]; Period 2, 56 mg",1.0 (0.98)
same,GAD-7 LS mean difference from placebo (SE),"[3]; Period 2, 84 mg",−1.25 (1.205)
same,"GAD-7 change from baseline to end point, LS mean (SE)","[3]; Period 2, 84 mg",−0.9 (1.02)
same,Diastolic blood pressure: maximum mean change on dosing days,[4],10.3 mmHg
same,Elevated blood pressure returned to the normal range by (post-dose),[4],≤ 2 h
same,Heart rate: maximum mean change on dosing days,[4],9.4 bpm
same,Systolic blood pressure: maximum mean change on dosing days,[4],19.0 mmHg
same,Maximum diastolic blood pressure value,[4]; 10 or 40 minutes post-dose,115 mmHg
same,Maximum systolic blood pressure value,[4]; 10 or 40 minutes post-dose,199 mmHg
